For assay [1], the target named is T1, HPSE (Homo sapiens, UniProt Q9Y251).
T1 sequence (Q9Y251 36-109 limits assumed): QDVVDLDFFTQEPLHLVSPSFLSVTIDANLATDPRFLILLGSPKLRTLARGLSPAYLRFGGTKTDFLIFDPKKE
T1 sequence (Q9Y251 158-543 limits assumed): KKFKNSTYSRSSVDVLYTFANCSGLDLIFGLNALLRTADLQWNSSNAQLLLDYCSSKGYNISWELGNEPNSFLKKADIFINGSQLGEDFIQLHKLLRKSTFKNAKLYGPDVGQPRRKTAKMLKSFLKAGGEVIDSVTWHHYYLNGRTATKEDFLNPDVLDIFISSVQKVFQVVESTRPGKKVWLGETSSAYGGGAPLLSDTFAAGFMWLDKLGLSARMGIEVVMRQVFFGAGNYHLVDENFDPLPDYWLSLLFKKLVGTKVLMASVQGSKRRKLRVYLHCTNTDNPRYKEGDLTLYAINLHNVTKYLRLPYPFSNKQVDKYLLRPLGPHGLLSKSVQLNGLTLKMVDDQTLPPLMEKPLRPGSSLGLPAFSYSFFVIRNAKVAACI
In words: HSPG digest assay, recombinant HPSE. The class given is biochemical. As to the method: ECM coated 35 mm culture dishes containing ^35S labelled HS were prepared as previously described (Vlodavsky et al., Curr. Protoc. Cell. Biol., Chapter 10, Unit 10, 14). Briefly, bovine corneal endothelial cells were plated at an initial density of 2×10^5 cells/ml, with 4% dextran T-40 (Sigma) included in the growth medium. Na2^35SO4 (25 μCi/ml) was added to the incubation medium on days 2 and 5 after seeding. On day 12, subendothelial ECM is exposed by dissolving the cells with PBS containing 0.5% Triton X-100 and 20 mM NH4OH, followed by four washes with PBS. For HS-degradation assays, ECM coated dishes were incubated with 200 ng recombinant HPSE in 1 mL reaction mixture (10 mM buffer Phosphate-Citrate pH 6.0, 50 mM NaCl, 1 mM DTT, 1 mM CaCl2) containing HPSE inhibitors or DMSO control. Plates were incubated at 37° C. for 5 h, then assay medium collected and applied to a 0.9×30 cm Sepharose 6B size exclusion column. The Sepharose 6B column was eluted with PBS, and ^35S radioactivity of 0.2 mL fractions quantitated using a liquid scintillation analyzer (Packard BioScience). Digest assays with U87 cell lysates were carried out in a similar fashion, except plates were incubated for 18 h with cell extracts prepared from 1×10^6 U87 glioma cells lysed by 3× freeze/thaw cycles.
The compounds of the invention were assessed against HPSE degradation of bona fide HSPGs in a physiologically relevant ECM-like environment. Cultured bovine corneal […] cells secrete a subendothelial basement membrane material rich in HSPGs, and their growth in the presence of ^35SO4^2− results in ^35S radiolabeled HSPGs (Vlodavsky et al., Curr Protoc Cell Biol, Chapter 10, Unit 10, 4, 2001). H^35S chains attached to these HSPGs are detectable after solubilization by HPSE, with enzyme inhibition leading to a corresponding reduction of signal.

In assay [2] the target is T1, HPSE. Put plainly: X-ray crystallography, ligand soaking of HPSE crystals. Conditions: crystal soaking. The text has this:
Xray diffraction data were collected at 100 K at beamlines i03 (HPSE-2, HPSE-3, HPSE-4, EcGUSB-1, BpHep-3), i04 (AcGH79-2, BpHep-2) and i04-1 (Apo-AcGH79, AcGH79-1, AcGH79-3) of the Diamond Light Source UK. Reflections were autoprocessed using the XIA2 pipeline. Complexes were solved by directly refining against their unliganded structures where isomorphous, or else solved by molecular replacement with PHASER (search model PDB accessions: 5E98 (HPSE), 3VNY (AcGH79), 3K46 (EcGUSB), 5BWI (BpHep)). […] Ligand coordinates were built using jLigand. Diagrams were generated using PyMOL.
HPSE—Well diffracting crystals of HPSE were obtained by the sitting-drop vapor-diffusion method at 20° C. using a well solution containing 0.1 M MES pH 5.5, 0.1 M MgCl2, 17% (w/v) PEG 3350, and a protein to well solution ratio of 200 nl:500 nl. Crystals typically appeared after 1 week. Inhibitor ligand complexes were obtained by transferring HPSE crystals to drops of well solution supplemented with 25% (v/v) ethylene glycol and 1-5 mM inhibitor. Crystals were incubated with ligand for ˜2-4 h, then directly harvested and flash-cooled in LN2 for data collection.
To better understand the molecular basis of interaction between our inhibitors and their targets, we turned to X-ray crystallography, using ligand soaking to derivatize enzymes in crystallo.

`CC(=O)NC1C(O)[C@H](O)C(CO)O[C@@H]1O[C@H]1C(O)C(O)[C@@H]2OC2C1C(=O)O` (stereo partly drawn) [Compound 2, 4-O-(2-N-acetyl-2-deoxy-D-glucopyranosyl)-glucurono-cyclophellitol]: the “inhibition of HPSE degradation of 35S-labelled HSPGs” value at HPSE [1] (200 ng recombinant HPSE, pH 6.0, 5 h) is reported as “robust, dose dependent inhibition”. Further, the “concentration giving comparable levels of inhibition” value on HPSE [1] (HSPG digest, recombinant HPSE) is 1 µM. Further, the “binding mode in HPSE active site cleft” value on HPSE [2] is “covalent linkages between their pseudo-anomeric carbons and the enzyme nucleophile Glu343”.

The values above are taken from US20250276993A1, “PSEUDO-DISACCHARIDE COMPOUNDS” (UNIVERSITEIT LEIDEN, priority 2022, published 2025).
